Laboratory results reported in patent US20080153806A1, “Novel Diazabicyclic Aryl Derivatives And Their Medical Use” (priority 2004, published 2008).
Counter-ions that a name gives are not always drawn. Like-named read-outs stand apart in the source and are kept apart here.

Legend:
[1] = target: T1, α7-subtype of nicotinic receptors (Rattus norvegicus, UniProt Q05941); test: In vitro inhibition of 3H-α-bungarotoxine binding in rat brain; conditions: rat cerebral cortex homogenate, 2 hours at 37° C., read-out: IC50 (concentration of the test substance which inhibits the specific binding of 3H-α-bungarotoxine by 50%)
T1 construct: Cerebral cortices from male Wistar rats (150-250 g) are homogenised; from tissue; host or cells: rat cerebral cortex membrane homogenate (male Wistar rats)
T1 sequence (Q05941 23-502): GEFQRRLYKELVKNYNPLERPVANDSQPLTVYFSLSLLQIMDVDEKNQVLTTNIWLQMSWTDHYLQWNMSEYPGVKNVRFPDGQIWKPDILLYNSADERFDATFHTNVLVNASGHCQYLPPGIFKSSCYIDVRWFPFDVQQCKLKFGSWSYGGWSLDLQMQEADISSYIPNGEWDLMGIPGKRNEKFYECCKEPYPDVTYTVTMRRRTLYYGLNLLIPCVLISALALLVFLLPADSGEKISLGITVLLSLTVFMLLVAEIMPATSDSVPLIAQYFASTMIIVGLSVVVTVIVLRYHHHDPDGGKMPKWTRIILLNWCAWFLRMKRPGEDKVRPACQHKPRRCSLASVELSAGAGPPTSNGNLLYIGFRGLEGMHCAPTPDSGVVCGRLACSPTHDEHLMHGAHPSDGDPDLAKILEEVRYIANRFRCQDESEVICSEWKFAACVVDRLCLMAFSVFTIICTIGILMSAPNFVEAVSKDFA

Row | melting point [°C] | SMILES | IC50 ([1]; 3H-α-bungarotoxine 2 nM) [nM] | IC50 ([1]; […]) [nM]
1 | 164 to 165 | CN1C2CCC1CN(c1ccc(-c3ccc(F)cc3)nn1)C2 |  | 
2 | 154 to 155 | COc1ccc(-c2ccc(N3CC4CCC(C3)N4C)nn2)cc1 |  | 
3 | 110.5 | CN1C2CCC1CN(c1ccc(-c3ccccc3)cn1)C2 |  | 
4 | 159 to 160 | CN1C2CCC1CN(c1cccc(-c3ccccc3)n1)C2 (as salt: fumaric acid salt) |  | 
5 | 180 | CN1C2CCC1CN(c1ccc(-c3ccc(Cl)cc3)nn1)C2 |  | 
6 | 242 | COc1ccc2cc(-c3ccc(N4CC5CCC(C4)N5C)nn3)ccc2c1 (as salt: fumaric acid salt) |  | 
7 | 219 to 222 | CC(=O)Nc1ccccc1-c1ccc(N2CC3CCC(C2)N3C)nn1 (as salt: fumaric acid salt) |  | 
8 | 192 to 200 | CN1C2CCC1CN(c1nnc(-c3ccccc3)s1)C2 (as salt: fumaric acid salt) |  | 
9 | 186 to 195 | CN1C2CCC1CN(c1ccc(-c3ccccc3N)nn1)C2 (as salt: fumaric acid salt) |  | 
10 | 151 | CN1C2CCC1CN(c1ccc(-c3ccccc3)nn1)C2 |  | 
11 | 170 to 191 | CN1C2CCC1CN(c1nnc(-c3ccccc3)o1)C2 (as salt: fumaric acid salt) |  | 
12 | 159 | CN1C2CCC1CN(c1ccc(-c3cccc(Cl)c3)nn1)C2 |  | 
13 | 131 to 133 | CN1C2CCC1CN(c1ccc(-c3cccnc3)nn1)C2 |  | 
14 | 192 to 200 | CN1C2CCC1CN(c1ccc(-c3ccccc3Cl)nn1)C2 (as salt: fumaric acid salt) |  | 
15 | 170 to 172 | COc1ccccc1-c1ccc(N2CC3CCC(C2)N3C)nn1 |  | 
16 | 92 to 97 | COc1cccc(-c2ccc(N3CC4CCC(C3)N4C)nn2)c1 |  | 

Row | SMILES | melting point [°C] | IC50 ([1]; 3H-α-bungarotoxine 2 nM) [nM] | IC50 ([1]; […]) [nM]
17 | CN1C2CCC1CN(c1ccc(-c3cccc(F)c3)nn1)C2 [Compound E11, 3-[6-(3-Fluoro-phenyl)-pyridazin-3-yl]-8-methyl-3,8-diaza-bicyclo[3.2.1]octane] | 149 to 150 | < 1000 | 
18 | CN1C2CCC1CN(c1ccc(-c3cccc(N)c3)nn1)C2 [Compound E7, 3-[6-(8-Methyl-3,8-diaza-bicyclo[3.2.1]oct-3-yl)-pyridazin-3-yl]-phenylamine] | 164 | < 1000 | 
19 | CN1C2CCC1CN(c1ccc(-c3ccco3)nn1)C2 [Compound E3, 3-(6-Furan-2-yl-pyridazin-3-yl)-8-methyl-3,8-diaza-bicyclo[3.2.1]octane] | 144 | < 1000 | 
20 | CN1C2CCC1CN(c1ccc(-c3ccoc3)nn1)C2 [Compound E5, 3-(6-Furan-3-yl-pyridazin-3-yl)-8-methyl-3,8-diaza-bicyclo[3.2.1]octane] | 152 | < 1000 | 
21 | CN1C2CCC1CN(c1ccc(-c3cccs3)nn1)C2 [Compound E1, 8-Methyl-3-(6-thiophen-2-yl-pyridazin-3-yl)-3,8-diaza-bicyclo[3.2.1]octane] | 156 | < 1000 | 
22 | CN1C2CCC1CN(c1ccc(-c3ccsc3)nn1)C2 [Compound E2, 8-Methyl-3-(6-thiophen-3-yl-pyridazin-3-yl)-3,8-diaza-bicyclo[3.2.1]octane] | 172 to 173 | < 1000 | 
23 | CC(=O)Nc1cccc(-c2ccc(N3CC4CCC(C3)N4C)nn2)c1 [Compound E8, N-{3-[6-(8-Methyl-3,8-diaza-bicyclo[3.2.1]oct-3-yl)-pyridazin-3-yl]-phenyl}-acetamide] | 74 |  | < 1000
24 | CN1C2CCC1CN(c1ccc(-c3ccccc3F)nn1)C2 [Compound E9, 3-[6-(2-Fluoro-phenyl)-pyridazin-3-yl]-8-methyl-3,8-diaza-bicyclo[3.2.1]octane] | 152 |  | < 1000
